Test results as given in patent US4788306A, “Fluorooxirane carboxylates as hypoglycemic agents” (American Home Products Corporation, priority 1987, dated 1988).
Counter-ions that a name gives are not always drawn. Like-named read-outs stand apart in the source and are kept apart here. Blank lines part the entries; values can stand above or below the compound they belong to.

Key:
[1] = molecular target: T1, carnitine palmitoyl transferase in liver mitochondria (Rattus norvegicus, UniProt P32198); assay: Inhibition of carnitine palmitoyl transferase activity in liver mitochondria; format: biochemical; conditions: for inhibition at 0.05 µM / inhibition at 0.1 µM / inhibition at 0.5 µM / inhibition at 1 µM / inhibition at 2 µM / inhibition at 5 µM / inhibition at 10 µM / inhibition at 50 µM: read-out: % Inhibition ± SEM, liver; for inhibition at 0.1 µM: 0.10 μM; for inhibition at 0.5 µM: 0.50 μM
T1 construct: from tissue; host or cells: rat liver mitochondria
T1 sequence (P32198 1-773): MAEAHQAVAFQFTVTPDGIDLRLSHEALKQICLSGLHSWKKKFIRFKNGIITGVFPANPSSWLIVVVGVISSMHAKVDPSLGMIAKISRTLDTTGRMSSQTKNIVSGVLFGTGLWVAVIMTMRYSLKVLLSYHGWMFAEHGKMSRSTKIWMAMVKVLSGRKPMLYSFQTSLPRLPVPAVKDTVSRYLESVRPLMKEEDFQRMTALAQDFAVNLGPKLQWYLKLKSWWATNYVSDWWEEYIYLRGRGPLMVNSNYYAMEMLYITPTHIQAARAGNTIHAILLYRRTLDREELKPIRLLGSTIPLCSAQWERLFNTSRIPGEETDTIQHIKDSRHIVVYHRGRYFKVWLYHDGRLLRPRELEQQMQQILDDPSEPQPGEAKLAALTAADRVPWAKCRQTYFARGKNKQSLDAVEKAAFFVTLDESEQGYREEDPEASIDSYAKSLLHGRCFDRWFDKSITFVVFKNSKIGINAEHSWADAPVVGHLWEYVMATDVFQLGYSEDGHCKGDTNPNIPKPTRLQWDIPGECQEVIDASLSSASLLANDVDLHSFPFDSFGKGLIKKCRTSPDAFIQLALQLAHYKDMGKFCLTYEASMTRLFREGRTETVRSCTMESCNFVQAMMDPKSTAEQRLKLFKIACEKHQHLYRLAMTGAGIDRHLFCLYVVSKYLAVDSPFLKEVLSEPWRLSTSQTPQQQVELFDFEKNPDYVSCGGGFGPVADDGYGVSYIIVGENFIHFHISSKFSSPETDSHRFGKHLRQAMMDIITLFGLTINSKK
Description: (§1) The following assay measures the ability of the compounds of the invention to inhibit the activity of carnitine palmitoyl transferase in liver and heart mitochondria.
(§2) According to this procedure, the following steps are carried out:
(§3) (1) Isolation of Mitochondria
(§4) (a) liver mitochondria: 5 g of liver from a 300 g rat is minced, homogenized with 40 ml (30 ml for heart mitochondria) of 0.25M sucrose, 10 mM Tris and 1 mM EDTA, pH 7.4 and centrifuged at 600 xg for 15 minutes. The decanted supernatant is centrifuged at 7,900 xg for 15 minutes. The resultant pellet is resuspended in 20 ml total (16 ml total for the heart mitochondria) of sucrose buffer and centrifuged 7,900 xg for 15 minutes. The pellet is then resuspended in 30 ml total (11 ml for heart mitochondria) of 0.15M KCl, 5 mM Tris.Cl, pH 7.4 and this is used as the enzyme source.
(§5) To 28 3 ml glass test tubes is added 350 μl of the following mixture:
(§6) 81 mg of FFA free albumin
(§7) 1.5 ml of 0.5 mM palmitoyl CoA
(§8) Then there are added to these test tubes 50 μl of water, 50 μl of 10 mM carnitine and 0.25 μCi^3 H-carnitine, and the tubes are placed in a 30° C. water bath.
(§9) (3) Mitochondrial Suspensions
(§10) Twelve plastic incubation tubes are prepared by adding the following to the tubes:
(§11) To each of the tubes, except 1 and 3, are added 30 μl of 200 mM ATP, 20 μl of 333 mM MgCl2 and 50 μl of 1.5 mg/ml CoA. 800 μl of mitochondria from step (1) above are added to each tube, and the tubes are incubated at room temperature for 20 minutes. The tubes are centrifuged at 7,900 xg for 3 minutes and the resultant pellet is resuspended in 1 ml chilled 150 mM KCl, 5 mM TRIS, pH 7.4.
(§12) 50 μl of mitochondrial suspension from step (3) above is added to the 28 tubes from step (2) as follows: (at 15 second intervals):
(§13) The tubes are incubated for 5 minutes at 30° C. and then there is added to each tube, at 15-second intervals, 50 μl of concentrated HCl, 1.45 ml water and 1 ml of n-butanol. The tubes are mixed, chilled in ice for 20 minutes and then centrifuged for 10 minutes at 2500 rpm to clarify the layers. Thereafter, 500 μl of the upper butanol layer of each tube is pipetted into 100 μl of water and 500 μl butanol saturated water, the tubes are mixed and chilled in ice for 20 minutes and centrifuged again for 10 minutes at 2500 rpm. 200 μl of the butanol layer of each tube is pipetted into a scintillation vial to which is added 10 ml of Aquasol, and the samples are counted in a Packard Tri-Carb Scintillation Counter.
(§14) The results are used to calculated the percentage of inhibition of carnitine palmitoyl transferase by the compounds tested.
When tested in the above assay using liver mitochondria alone, other compounds of the invention give the following results.

[2] = molecular target: T2, carnitine palmitoyl transferase in heart mitochondria (Rattus norvegicus, UniProt Q63704); assay: Inhibition of carnitine palmitoyl transferase activity in heart mitochondria; format: biochemical; conditions: for inhibition at 0.1 µM: 0.10 μM; for inhibition at 0.5 µM: 0.50 μM
T2 construct: to obtain a heart mitochondria fraction; from tissue; host or cells: rat heart mitochondria
T2 sequence (Q63704 1-772): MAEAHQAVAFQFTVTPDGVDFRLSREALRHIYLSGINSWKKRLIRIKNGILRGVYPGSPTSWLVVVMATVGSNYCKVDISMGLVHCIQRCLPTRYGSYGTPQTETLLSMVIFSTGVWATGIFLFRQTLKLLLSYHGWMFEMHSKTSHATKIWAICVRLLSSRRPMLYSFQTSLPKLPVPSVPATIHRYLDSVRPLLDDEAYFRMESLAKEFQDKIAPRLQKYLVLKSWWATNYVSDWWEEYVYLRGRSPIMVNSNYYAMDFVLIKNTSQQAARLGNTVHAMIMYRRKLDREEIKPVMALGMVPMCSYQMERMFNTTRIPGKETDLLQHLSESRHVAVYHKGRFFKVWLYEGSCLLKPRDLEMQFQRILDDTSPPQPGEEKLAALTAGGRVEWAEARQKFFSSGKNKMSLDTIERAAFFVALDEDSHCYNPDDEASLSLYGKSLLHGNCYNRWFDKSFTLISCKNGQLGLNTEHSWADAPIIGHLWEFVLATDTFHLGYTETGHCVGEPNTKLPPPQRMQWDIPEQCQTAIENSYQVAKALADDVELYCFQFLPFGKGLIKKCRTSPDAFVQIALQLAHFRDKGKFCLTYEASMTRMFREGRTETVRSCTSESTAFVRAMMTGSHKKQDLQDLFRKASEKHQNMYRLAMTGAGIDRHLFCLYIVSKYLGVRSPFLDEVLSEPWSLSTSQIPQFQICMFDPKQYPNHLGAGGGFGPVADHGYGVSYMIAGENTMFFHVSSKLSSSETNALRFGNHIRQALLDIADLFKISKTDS
Description: as §1, §2, §3, §4
(b) heart mitochondria: four rat hearts are processed as described in step (a) above to obtain a heart mitochondria fraction.
as §5, §6, §7, §8, §9, §10, §11, §12, §13, §14

[3] = Bachmann et al. 1984, Lee et al. 1982 and 1985; cited from earlier work
[4] = Table 2 (Example 10), liver mitochondria alone, read-out: % Inhibition of Hepatic CPTase, IC50
[5] = Table 1, liver mitochondria, ± SEM, read-out: IC50, liver
[6] = read-out: % Inhibition ± SEM, heart
[7] = 50.0 μM, read-out: % Inhibition ± SEM, heart
[8] = Example 9, second (untitled) table, liver mitochondria, read-out: Inhibition of Hepatic CPTase, IC50
[9] = at 50 μM, Example 9, second (untitled) table, read-out: % Maximal Inhibition of Cardiac CTPase at 50 μM

- IC50 [1, 4]: 850 nM
SMILES: COC(=O)C1(C(F)CCCCCOc2ccc(Cl)cc2)CO1 (single isomer, unassigned) [3 (isomer A), 2-[6-(4-chlorophenoxy)-1-fluorohexyl]-2-oxiranecarboxylic acid methyl ester]

- IC50 [1, 4]: 1750 nM
SMILES: COC(=O)C1(C(F)CCCCCOc2ccc(Cl)cc2)CO1 (single isomer, unassigned) [3 (isomer B), 2-[6-(4-Chlorophenoxy)-1-fluorohexyl]-2-oxiranecarboxylic acid methyl ester]

- IC50 [1, 4]: 1080 nM
SMILES: COC(=O)C1(C(F)CCCCc2ccccc2)CO1 (single isomer, unassigned) [Example 1 (isomer A), 2-(1-Fluoro-5-phenylpentyl)-2-oxiranecarboxylic acid methyl ester]

- inhibition at 0.05 µM [1]: 5 ± 3%
- inhibition at 0.1 µM [1]: 11 ± 5%
- inhibition at 0.5 µM [1]: 23 ± 7%
- inhibition at 1 µM [1]: 61 ± 9%
- inhibition at 2 µM [1]: 78 ± 7%
- inhibition at 5 µM [1]: 79 ± 8%
- inhibition at 10 µM [1]: 80 ± 9%
- inhibition at 50 µM [1]: 82 ± 10%
- IC50 [1, 5]: 970 ± 180 nM
- IC50 [1, 4]: 970 nM
- inhibition at 0.05 µM [2, 6]: 6 ± 5%
- inhibition at 0.1 µM [2, 6]: 17 ± 5%
- inhibition at 0.5 µM [2, 6]: 18 ± 4%
- inhibition at 1 µM [2, 6]: 34 ± 3%
- inhibition at 2 µM [2, 6]: 35 ± 3%
- inhibition at 5 µM [2, 6]: 40 ± 4%
- inhibition at 10 µM [2, 6]: 50 ± 2%
- inhibition at 50 µM [2, 7]: 52 ± 4%
SMILES: COC(=O)C1(C(F)CCCCOc2ccc(Cl)cc2)CO1 (single isomer, unassigned) [Example 2 (isomer A), 2-[5-(4-Chlorophenoxy)-1-fluoropentyl]-2-oxiranecarboxylic acid methyl ester]

- IC50 [1, 4]: 500 nM
SMILES: O=C(O)C1(C(F)CCCCOc2ccc(Cl)cc2)CO1 (single isomer, unassigned) [Example 4, 2-[5-(4-Chlorophenoxy)-1-fluoropentyl]-2-oxiranecarboxylic acid sodium salt]

- IC50 [1, 4]: 520 nM
SMILES: O=C(O)C1(C(F)CCCCCOc2ccc(Cl)cc2)CO1 (single isomer, unassigned) [Example 5, 2-[6-(4-Chlorophenoxy)-1-fluorohexyl]-2-oxiranecarboxylic acid sodium salt]

- inhibition at 0.05 µM [1]: 9 ± 7%
- inhibition at 0.1 µM [1]: 11 ± 6%
- inhibition at 0.5 µM [1]: 60 ± 7%
- inhibition at 1 µM [1]: 79 ± 2%
- inhibition at 2 µM [1]: 82 ± 2%
- inhibition at 5 µM [1]: 86 ± 3%
- inhibition at 10 µM [1]: 83 ± 3%
- inhibition at 50 µM [1]: 85 ± 2%
- IC50 [1, 8]: 310 nM
- IC50 [1, 5]: 330 ± 40 nM
- inhibition at 0.05 µM [2, 6]: 5 ± 6%
- inhibition at 0.1 µM [2, 6]: 8 ± 7%
- inhibition at 0.5 µM [2, 6]: 36 ± 10%
- inhibition at 1 µM [2, 6]: 38 ± 15%
- inhibition at 2 µM [2, 6]: 51 ± 15%
- inhibition at 5 µM [2, 6]: 68 ± 11%
- inhibition at 10 µM [2, 6]: 81 ± 1%
- inhibition at 50 µM [2, 7]: 84 ± 1%
- IC50 ([2]; Table 1, heart mitochondria, ± SEM): 250 nM
- inhibition at 50 µM [2, 9]: 85 ± 2%
SMILES: CCOC(=O)C1(CCCCCCOc2ccc(Cl)cc2)CO1 (stereo not drawn) [Compound A, 2-[6-(4-chlorophenoxy)hexyl]oxirane-2-carboxylic acid ethyl ester, reference compound]

- IC50 [1, 8]: 350 nM
- inhibition at 50 µM [2, 9]: 26 ± 4%
SMILES: COC(=O)C1(C(F)(F)CCCCCOc2ccc(Cl)cc2)CO1 (stereo not drawn) [Example 7 (gem-difluoro compound), 2-[6-(4-Chlorophenoxy)-1,1-difluorohexyl]-2-oxiranecarboxylic acid methyl ester]

- IC50 [1, 8]: 250 nM
- inhibition at 50 µM [2, 9]: 24 ± 6%
SMILES: O=C(O)C1(C(F)(F)CCCCCOc2ccc(Cl)cc2)CO1 (stereo not drawn) [Example 8, 2-[6-(4-Chlorophenoxy)-1,1-difluorohexyl]-2-oxiranecarboxylic acid sodium salt]

SMILES: CCCCCCCCCCCCCCC1(C(=O)OC)CO1 (stereo not drawn) [methyl ester of 2-tetradecylglycidate]
- cardiac effects from chronic administration, in words [3]: adverse cardiac effects
